Test results reported in patent US20020151583A1, “Prevention of liver cancer by administration of simvastatin” (priority 2001, published 2002).

Assays:
alphafetoprotein = experiment: Clinical case reports: monitoring of serum alphafetoprotein level under daily oral simvastatin; assay type: in vivo, patients
Procedure: (§1) In order to avoid unforeseen side effects, the treatment was initiated at a 20 mg dose once daily for one week. The dose was then increased to 40 mg daily during the following week, and was again increased to 60 mg daily during the third week. During the fourth week, the dose was increased to 80 mg daily (two tablets of 40 mg each) and remained the same thereafter. Following the administration of simvastatin as described above, the patients' alphafetoprotein levels were monitored on a monthly basis until values reached normal levels and then every three months thereafter in association with liver function tests and coagulation studies as part of a follow-up. In addition, an abdominal ultrasound test was performed every four months in an attempt to identify any new liver masses, and MRI (magnetic resonance imaging) studies of the liver were performed.

liver cancer = experiment: Clinical case reports: imaging studies of the liver (abdominal ultrasound, MRI) for new liver masses; assay type: in vivo, patients
Procedure: as §1

For `CCC(C)(C)C(=O)OC1C[C@@H](C)C=C2C=C[C@H](C)[C@H](CC[C@@H]3C[C@@H](O)CC(=O)O3)[C@H]21` (relative stereo) [simvastatin, butanoic acid, 2,2-dimethyl-,1,2,3,7,8,8a-hexahydro-3,7-dimethyl-8-[2-(tetrahydro-4-hydroxy-6-oxo-2H-pyran-2-yl)-ethyl]-1-naphthalenyl ester, [1S-[1α,3α,7β,8β(2S*,4S*),-8aβ]]], the “time until alphafetoprotein level normalized” value (alphafetoprotein; Case No. 1: Hepatitis B, rapidly increasing alphafetoprotein, progressively increased dosages of simvastatin) was “four”, the “alphafetoprotein level after patient stopped taking simvastatin” value (alphafetoprotein; Case No. 1: after stopping simvastatin) was 33 and the “alphafetoprotein level after simvastatin was re-introduced” value (alphafetoprotein; Case No. 1: re-introduced at progressively increased dosages) was “normalized and has remained normalized”. The “alphafetoprotein level on maintenance dosages of simvastatin” value (alphafetoprotein; Case No. 2) was “remained normalized”, the “time until alphafetoprotein level normalized” value (alphafetoprotein; Case No. 2: Hepatitis B, progressively increasing alphafetoprotein, increasing doses of simvastatin) was no more than 5 months and the “alphafetoprotein level after normalization” value (alphafetoprotein; Case No. 3) was “remained normalized”. For the same molecule, the “time until alphafetoprotein level normalized” value (alphafetoprotein; Case No. 3: Hepatitis C, alphafetoprotein above 50 before treatment, protocol administration) was no more than 2 months, the “elevation of alphafetoprotein during observation period” value (alphafetoprotein; Case No. 4: patients with Hepatitis B and C or other liver cirrhosis, normal alphafetoprotein, simvastatin daily since diagnosis) was “None of these patients showed an elevation of alphafetoprotein” and the “course of alphafetoprotein level” value (alphafetoprotein; patients with an elevated alphafetoprotein level (above 10 ng/mL) who underwent treatment) was “progressively decline over several weeks to several months to normal values”. For the same molecule, the “liver tumor mass in repeated imaging studies” value (“liver tumor mass” below) (liver cancer; Case No. 1) was “never showed any liver tumor mass”, the “liver tumor mass” value (liver cancer; Case No. 2) was “never showed any liver tumor mass” and the “liver tumor mass” value (liver cancer; Case No. 3) was “never showed any liver tumor mass”. The “subsequent development of liver cancer” value (liver cancer; patients with an elevated alphafetoprotein level who underwent treatment) was “None of the patients subsequently developed liver cancer” and the “malignancy detected by careful imaging studies” value (liver cancer; patients with known liver diseases at high risk, liver diseases continued to progress) was “no malignancy was ever detected”.
